Assay [1] addresses T1, MBP-CASP2(32–165), human caspase-2 pro-domain (Homo sapiens, UniProt P42575).
T1 construct: cDNAs encoding BID and caspase-2 pro-domain (residues 32–165) were constructed into modified pET vectors; made in house; host or cells: E. coli BL21 (DE3)
T1 sequence (P42575 32-165): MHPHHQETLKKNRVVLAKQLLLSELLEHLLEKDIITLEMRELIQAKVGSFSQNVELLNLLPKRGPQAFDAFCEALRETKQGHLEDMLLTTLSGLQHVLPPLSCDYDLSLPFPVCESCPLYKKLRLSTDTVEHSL
Kind of assay: MicroScale Thermophoresis binding to MBP-fused caspase-2 pro-domain. As to conditions: MST, 25°C, PBST buffer; means ± s.d. from two determinations; read-out: KD (binding constant). An excerpt: The above results prompted us to reason whether HUHS015-36 could directly target caspase-2 for activation without the requirement of any other mediator. To directly test this hypothesis, we tried to obtain purified caspase-2 protein. The preparation of full-length caspase-2 protein is known to be technically challenging. Meanwhile, the CARD domain of a caspase often plays the role in sensing upstream signals, as exemplified by the CARD of caspase-2 that is recruited by RAIDD through the CARD–CARD interaction for assembling the PIDDosome. […]
Figure 4. […] (A) The direct binding between HUHS015-36 and MBP-fused human caspase-2 pro-domain was detected by microscale thermophoresis (MST). […] The calculated dissociation constant (KD) is expressed as means ± s.d. from two determinations. […] ATP-based cell viability in panels (C–E) is expressed as mean ± s.d. from three technical replicates. […] TEXT PRINTED IN THE PICTURE: (A) HUHS015-36: MBP-CASP2(32–165) vs. HUHS015-36: KD (μmol/L): 22.05 ± 6.151; MBP vs. HUHS015-36: KD (μmol/L): Not detected
MicroScale thermophoresis (MST) experiments were carried out at 25°C in the PBST Buffer (PBS with 0.05%, v/v Tween 20) by using a Monolith 2020 (TNG) (MM-208). […] The temperature-induced changes in fluorescence intensity of each sample in the capillary thermophoresis tubes were recorded by the Monolith instrument. […]

For assay [2], the target named is T2, MBP-CASP2(32-165)-L150P/Y151H (Homo sapiens, UniProt P42575, L150P/Y151H).
T2 construct: cDNAs encoding BID and caspase-2 pro-domain (residues 32–165) were constructed into modified pET vectors; made in house; host or cells: E. coli BL21 (DE3)
T2 sequence (P42575 32-165 L150P/Y151H): T1 sequence (P42575 32-165) with L119P, Y120H
Kind of assay: MicroScale Thermophoresis binding to L150P/Y151H mutant pro-domain. Particulars: MST, L150P/Y151H double mutant. An excerpt:
The contrasting responses of the two caspases to HUHS015 might result from sequence differences in the interdomain linker in the pro-domain. […] However, replacing L150 and Y151 in human caspase-2 with mouse P150 and H151, respectively, abolished HUHS015-induced caspase-2 activation as well as the cell death response (Fig. 4D). […] The importance of L150/Y151 for human caspase-2 activation by HUHS015 indicates these residues or the associated structure are likely involved in binding to the compound agonist.
MicroScale thermophoresis (MST) experiments were carried out at 25°C in the PBST Buffer (PBS with 0.05%, v/v Tween 20) by using a Monolith 2020 (TNG) (MM-208). […] The temperature-induced changes in fluorescence intensity of each sample in the capillary thermophoresis tubes were recorded by the Monolith instrument. The data were analyzed using the program provided by the manufacturer. The binding constant (KD) was calculated directly from the fitting.
Relative fluorescence (%) […]
(A) HUHS015-36 activates caspase-2 independently of PIDDosome. […] A TP-based cell viability is expressed as mean±s.d. from three technical replicates.
Immunoblotting detecting caspase-2 and BID processing is shown. […] A TP-based cell viability is expressed as mean±s.d. from three technical replicates. […]

Assay [3] relates to caspase-2 interdomain linker mutants in HeLa TKO cells. In words: Cell death and caspase-2 activation in HeLa TKO cells expressing caspase-2 linker mutants. It is filed as cell-based. An excerpt: Figure 4. HUHS015 activates human caspase-2 directly through specific targeting of the interdomain linker of caspase-2. (A) The direct binding between HUHS015-36 and MBP-fused human caspase-2 pro-domain was detected by microscale thermophoresis (MST). MST profiles for raw binding signals and affinity (KD) measurement are shown. The calculated dissociation constant (KD) is expressed as means ± s.d. from two determinations. (B) Sequence alignment of the pro-domain (residues 1–169) of human and mouse caspase-2. CARD domain annotation is shown on top of the sequences. Identical residues are in red background and conserved ones are in red. Numbers of starting residues are indicated on the left. Different residues in the interdomain linker (residues 122–169) were highlighted with green color. (C) HUHS015 activates human but not mouse caspase-2. HeLa TKO cells rescued with human or mouse caspase-2 expression were treated with HUHS015 for the indicated time. ATP-based cell viability and immunoblotting detecting caspase-2 processing are shown. […] ATP-based cell viability in panels (C–E) is expressed as mean ± s.d. from three technical replicates. […] TEXT PRINTED IN THE PICTURE: (A) HUHS015-36: MBP-CASP2(32–165) vs. HUHS015-36: KD (μmol/L): 22.05 ± 6.151; MBP vs. HUHS015-36: KD (μmol/L): Not detected […]

Substitutions are numbered along the chain they refer to. “And” between values parts separate entries of the source, which are not always exact repeats. Equal entries are not always repeated. “Also recorded” adds a separate entry of the source.

For the compound `Cc1cccc2nc(-n3nc4c(c3O)CCCC4)[nH]c12` [HUHS015-36], the Kd in assay [1] was ~22 µM and 22.1 µM. Moreover, the KD result in assay [2] is “Not detected; also recorded: failed to detect confident binding”.

For `Cc1ccc2nc(-n3nc(C)c(Cc4ccccc4)c3O)[nH]c2c1` [HUHS015], the “caspase-2 activation and cell death” value in assay [3] (human caspase-2 with L150 and Y151 replaced by mouse P150 and H151, 5 h) is recorded as “abolished”. Further, the “caspase-2 activation and apoptosis” value in assay [3] (mouse caspase-2 with P150 and H151 replaced by L150 and Y151, 5 h) is “capable of being activated”.

As usually defined, the Kd is a measure of binding affinity in units of concentration.

Values taken from paper PMC11637483, “Dissecting caspase-2-mediated cell death: from intrinsic PIDDosome activation to chemical modulation” (Protein & Cell, 2024).
